# Reference: patent US20240197610A1, “CERAMIDE GROWTH PROMOTING AGENT” (TAKASAGO INTERNATIONAL CORPORATION, priority 2020, published 2024)
# Test system: late differentiated cultured human keratinocytes (LDKs)
# Assay: Ceramide growth test in cultured human keratinocytes (LC-ESI-MS/MS quantification of ceramide species)
# Type: cell-based
# Method: Experiments were conducted using undifferentiated and late differentiated cultured human keratinocytes (KCs). Human keratinocytes were cultured in a serum-free KC growth medium containing 0.07 mM calcium, and collected to be undifferentiated cells when KCs occupied up to about 60% to 70% of the total area of the culture petri dish (about 60% to 70% confluence). KCs were cultured in a serum-free KC growth medium containing 0.07 mM of calcium, and the medium was replaced with DMEM containing 10% fetal bovine serum containing 1.2 mM of calcium, 10 μg/mL insulin, 0.4 μg/mL hydrocortisone, and 50 μg/mL of vitamin C and Ham's F-12 (2:1, v/v) when KCs occupied up to about 70% to 80% of the total area of the culture petri dish (about 70% to 80% confluence), followed by culturing for 8 days. Next, cells cultured for 3 days in a DMEM medium containing 10% fetal bovine serum containing 1.2 mM of calcium, 10 μg/mL insulin, 0.4 μg/mL hydrocortisone, and 50 μg/mL of vitamin C were used as late differentiated cultured human keratinocytes (LDKs).
# From the second day of culture to the fourth, sixth, eighth, ninth, and tenth days, the ceramide preparation (I % ceramide NDS solution) prepared in Example 1 was diluted with a medium, filtered with a filter paper having a pore size of 0.45 μm, and 15.9 μL, 79.6 μL, and 397.7 μL (=10 μM, 50 μM, 250 μM) thereof were added, separately. In addition, 79.6 μL of a Blk solution not containing ceramide prepared in Comparative Example 1 was added, followed by culturing.
# 100 μg of each of the culture solutions prepared above and 100 μmol of an internal standard substance mixture (C17 (carbon number 17)-ceramide NS=N-octadecanoylamino-C17 sphingosine, C17-sphingosine, C17-dihydrosphingosine) were added to a mixed solution of a 0.1 N HCl aqueous solution: chloroform: methanol (volume ratio 1:2:1) and stirred, and then the organic phase of the lower layer was dried in vacuo, and the extraction drying operation was repeated twice. The obtained residue was dissolved in 200 μl of a methanol/acetonitrile equivalent mixture, and analyzed by the following liquid chromatography tandem mass spectrometry (LC-ESI-MS/MS) system (API 3200 QTRAP mass, ABCIEX). […]
# 10 μL of the extracted sample was analyzed by HPLC (HTS HPLC system manufactured by Shiseido Co., Ltd.) with a reverse phase KINTEX C18 column (2.1×50 mm, ID=2.6 μm). The column was previously equilibrated with a solvent A (MeOH: 0.05% formic acid aqueous solution: 80:20), the lipid was dissolved in a solvent B(2-propanol:0.05% formic acid methanol solution: 99:1), and a mass spectrum was detected in a positive mode by electrospray ionization with a gradient applied at a flow rate of 0.3 ml/min. […]
compound,measurement,setting,value
"CCCCCCCCCCCCCCCCCC(=O)N[C@@H](CO)[C@H](O)CCCCCCCCCCCCCCC [ceramide NDS, (2S,3R)-2-octadecanoylaminooctadecane-1,3-diol]",ceramide NSs (acyl chain length 14 to 26) amount,"Example 1 preparation added at 10 μM, 50 μM, 250 μM, 10 days culture, p<0.01 vs LDK without ceramide NDS, FIG. 4",significantly increased
same,ceramide NDSs (different acyl chain lengths of 14 to 26) amount,"Example 1 preparation added at 10 μM, 50 μM, 250 μM, 10 days culture, p<0.01 vs LDK without ceramide NDS, FIG. 5",significantly increased
same,"ceramide EOSs (ω-hydroxy acid amide bond of 30 and 32 carbon atoms, esterified with linoleic acid at ω-position) amount","Example 1 preparation added at 10 μM, 50 μM, 250 μM, 10 days culture, p<0.01 vs LDKs without ceramide NDS, FIG. 3",significantly increased
same,growth of various ceramide species,ceramide preparation added to keratinocyte culture,are grown
